Consider ten compounds from PMC6747015, “Structure–function study of a novel inhibitor of the casein kinase 1 family in Arabidopsis thaliana” (Plant Direct, 2019).

Entries after “also recorded” stand apart in the source; their conditions may differ. Where two headings read alike, the source gives them in different places.

Experiment [1] deals with CCA1:LUC seedlings. Kind of experiment: Bioluminescence-based circadian period lengthening in CCA1:LUC seedlings. Format: in vivo, Arabidopsis thaliana. The following applies: for Period‐lengthening activity (in words) / Concentration required for 2‐hr period lengthening (2hLC) / Concentration required for 5‐hr period lengthening (5hLC): CCA1:LUC seedlings; for Concentration required for 2‐hr period lengthening (2hLC) / Concentration required for 5‐hr period lengthening (5hLC): constant light. As for the experimental part: Bioluminescence‐based circadian rhythms of CCA1:LUC plants treated with small molecules were analyzed by auto‐luminescence detection (Churitsu CL96) as described previously (Uehara et al., 2019). Period length was automatically calculated as previously described (Kamioka et al., 2016).
To estimate CK1 inhibitor activity in vivo, we choose to measure circadian period‐lengthening activity in Arabidopsis seedlings. The assay was made more efficient by monitoring the circadian period using a clock reporter plant line (CCA1:LUC) and an automated luminometer. These tools can be used to measure the circadian period with high confidence, and estimates of in vivo CK1 inhibitor activity are quantitative (Uehara et al., 2019). Four‐day‐old CCA1:LUC seedlings grown under 12‐hr light/12‐hr dark conditions were treated with IC261, PF‐670462, and PHA767491 at different concentrations, and seedling luminescence was monitored under constant light conditions. Dimethyl sulfoxide (DMSO), the solvent used for all of the CK1 inhibitors, was used as a control. IC261 lengthened the circadian period of CCA1:LUC seedlings in a dose‐dependent manner (Figure 1d), with a 2‐hr period lengthening at 500 µM. PF‐670462 and PHA767491 treatment concentrations also correlated with period lengthening (Figure 1e and f). The concentrations required for 2‐hr lengthening effects were 90 µM for PF‐670472 and 47 µM for PHA767491, which was consistent with previous work (Uehara et al., 2019). Thus, PHA767491 was the strongest in vivo CK1 inhibitor among the three inhibitors tested.

For a further experiment, the target named is T1, Recombinant CKL4 kinase (Arabidopsis thaliana, UniProt Q8LPI7).
T1 sequence (Q8LPI7 1-414): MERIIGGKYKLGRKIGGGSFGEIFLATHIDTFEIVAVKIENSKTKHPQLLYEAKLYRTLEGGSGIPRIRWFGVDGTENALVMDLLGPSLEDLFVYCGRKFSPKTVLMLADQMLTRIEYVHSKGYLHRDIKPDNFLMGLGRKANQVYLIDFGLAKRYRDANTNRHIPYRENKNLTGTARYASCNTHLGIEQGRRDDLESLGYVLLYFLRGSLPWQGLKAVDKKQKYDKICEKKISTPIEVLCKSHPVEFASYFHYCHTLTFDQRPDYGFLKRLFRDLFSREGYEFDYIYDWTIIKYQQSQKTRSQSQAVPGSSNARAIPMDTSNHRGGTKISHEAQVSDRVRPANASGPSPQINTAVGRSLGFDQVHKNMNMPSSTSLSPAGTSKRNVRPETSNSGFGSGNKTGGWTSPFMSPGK
Kind of experiment: In vitro phosphorylation assay of CKL4 (32P phosphorylation of casein). Format: biochemical. The protocol: In vitro phosphorylation assays using recombinant CKL4 were performed as described previously (Uehara et al., 2019), with synthetic small molecules. IC261 and PF‐670462 were purchased (Sigma‐Aldrich catalog numbers I0658 and SML0795, respectively). PHA767491 was synthesized as previously described (Uehara et al., 2019). All chemical compounds were dissolved in dimethyl sulfoxide (DMSO) as 10 mM stock solutions. Stock solutions were diluted with DMSO to the working concentration and added to assays in kinase reaction buffer (Uehara et al., 2019).
The activities of three known CK1 inhibitors were measured in vitro by a previously reported method (Uehara et al., 2019). Recombinant CKL4 kinase, casein, ^32P‐ATP, and different concentrations of the inhibitors were combined in a reaction buffer and kept at 37°C for 2 hr. Resulting samples were separated on a polyacrylamide gel by electrophoresis, and ^32P phosphorylation of casein was measured as an indicator of CKL4 kinase activity. IC50 (half‐maximal inhibitory concentration) was determined by calculating the results from at least two independent experiments. […] The stronger in vitro CK1 inhibitory activity shown by PF‐670462 relative to PHA767491 was consistent with previous reports (Uehara et al., 2019).

The next experiment has as its system PRR7. Kind of experiment: RT-qPCR of the CK1 downstream gene PRR7. The class given is in vivo, Arabidopsis. The following applies: 10 and 50 µM, 6 hr. As for the experimental part:
Arabidopsis Col‐0 seedlings that had been grown under constant light conditions for […] were immersed in 10 or 50 µM of the GSK‐3, SHAGGY‐related, and BIN2 kinase inhibitor Bikinin (SML0094, Sigma) (De Rybel et al., 2009), […], or DMSO as control for 6 hr. Three biological replicates were used for each assay. Harvested seedlings were frozen in liquid nitrogen and crushed with zirconia beads in a Tissue Lyser II, and RNA was isolated with Illustra RNAspin (25‐0500‐72, GE Healthcare). RT‐qPCR was performed as described previously (Nakamichi et al., 2010) using an Eco Real‐Time PCR System (Illumina). Gene expression was normalized against IPP2, and maximal values were set to 1. Primers for detecting IPP2, PRR7, GR60ox2, and CPD were described previously (De Rybel et al., 2009; Kamioka et al., 2016).
Because the ATSK family was identified by the molecular probe assay as potential targets of AMI‐331, even though the affinities between AMI‐331 and ATSKs were not as high as between AMI‐331 and CK1, we used the ATSK inhibitor Bikinin to determine if AMI‐331 treatment affects the expression of genes downstream of ATSKs (De Rybel et al., 2009). Four‐day‐old Arabidopsis seedlings grown under constant light conditions were treated with Bikinin or AMI‐331 for 6 hr, and mRNA extracted from seedlings samples was analyzed by RT‐qPCR.

Experiment [2] deals with CCA1:LUC seedlings. Details: method as in Uehara et al., 2019. The conditions noted are these: ref Uehara et al., 2019; cited from earlier work.
The next experiment deals with GR60ox2 and CPD. Kind of experiment: RT-qPCR of the ATSK downstream genes GR60ox2 and CPD. The class given is in vivo, Arabidopsis. The following applies: 10 or 50 µM, 6 hr. The protocol:
[…] Three biological replicates were used for each assay. Harvested seedlings were frozen in liquid nitrogen and crushed with zirconia beads in a Tissue Lyser II, and RNA was isolated with Illustra RNAspin (25‐0500‐72, GE Healthcare). RT‐qPCR was performed as described previously (Nakamichi et al., 2010) using an Eco Real‐Time PCR System (Illumina). Gene expression was normalized against IPP2, and maximal values were set to 1. Primers for detecting IPP2, PRR7, GR60ox2, and CPD were described previously (De Rybel et al., 2009; Kamioka et al., 2016).
Because the ATSK family was identified by the molecular probe assay as potential targets of AMI‐331, even though the affinities between AMI‐331 and ATSKs were not as high as between AMI‐331 and CK1, […] affects the expression of genes downstream of ATSKs (De Rybel et al., 2009). […]

The subject of the next experiment is PRR5 and TOC1. Details: method as in Uehara et al., 2019. The following applies: ref Uehara et al., 2019; cited from earlier work.
[3] abbreviates: recombinant CKL4, casein, 32P‐ATP, 37°C for 2 hr, read-out: IC50 for in vitro CKL4 kinase activity.

As a reminder, the IC50 is the concentration needed to halve the response being measured.

Turning to `O=C1NCCc2[nH]c(-c3ccncc3)c(Br)c21` [AMI‐23], in the experiment on CCA1:LUC seedlings [1], the “Period‐lengthening activity (in words)” value was “Strong activities”, the “Concentration required for 2‐hr period lengthening (2hLC)” value (“Concentration required … (2hLC)” below) turned out to be 1.5 µM and the “Concentration required for 5‐hr period lengthening (5hLC)” value is on record as 5.0 µM. Besides, the IC50 on Recombinant CKL4 kinase (setting [3]) was 700 nM.

On to `Cl.O=C1NCCc2c1cc(-c1ccncc1)n2CCn1cccc1` [AMI‐118], for which the “Period‐lengthening activity (in words)” value in the experiment with CCA1:LUC seedlings [1] was “weak period‐lengthening activity”.

As to `O=C1NCCc2[nH]c(-c3ccncc3)c(Cl)c21` [AMI‐24], the “Period‐lengthening activity (in words)” value in the experiment with CCA1:LUC seedlings [1] is on record as “Strong activities”.

As for `COc1cc(OC)c(C=C2C(O)=Nc3ccccc32)c(OC)c1` [IC261, reference compound], the IC50 on Recombinant CKL4 kinase turned out to be 6700 nM.

With `Nc1nccc(-c2c(-c3ccc(F)cc3)ncn2C2CCCCC2)n1` [PF‐670462, reference compound], the IC50 on Recombinant CKL4 kinase (setting [3]) amounted to 800 nM.

On to `Cc1c(-c2ccncc2)[nH]c2c1C(=O)NCC2` [AMI‐217], for which the “Period‐lengthening activity (in words)” value in the experiment with CCA1:LUC seedlings [1] is on record as “Strong activities”.

In the case of `C#CCn1c(-c2ccncc2)cc2c1CCNC2=O` [AMI‐212], in the experiment with CCA1:LUC seedlings [1], the “Period‐lengthening activity (in words)” value was “weak period‐lengthening activity; also recorded: stronger period‐lengthening activity than AMI‐126”, the “Concentration required … (2hLC)” value is on record as “around 7.0 µM” and the “Concentration required for 5‐hr period lengthening (5hLC)” value is recorded as 26 µM. Also, in the experiment on CCA1:LUC seedlings [1] (listed as AMI-212), the “Concentration required … (2hLC)” value is 7.0 µM. The “Period‐lengthening (in vivo inhibitory) activity relative to PHA767491” value in the experiment on CCA1:LUC seedlings [1] (compared with parent PHA767491) is reported as “approximately fivefold higher”. The IC50 at Recombinant CKL4 kinase (setting [3]) was found to be 1200 nM.

In the case of `CCn1c(-c2ccncc2)cc2c1CCNC2=O` [AMI‐126], in the experiment with CCA1:LUC seedlings [1], the “Period‐lengthening activity (in words)” value is on record as “strong activity”.

As for `O=C(O)CCC(=O)Nc1ccc(Br)cn1` [Bikinin, reference compound], the PRR7 transcript abundance entry in the experiment on PRR7 was “did not affect”. In addition, the “Period lengthening on inhibition of ATSKs” value in the experiment on CCA1:LUC seedlings [2] was “did not result in period lengthening”. Also, in the experiment on GR60ox2 and CPD, the “GR60ox2 and CPD transcript abundance” value is “reduced”.

For the compound `Cl.O=C1NCCc2[nH]c(-c3ccncc3)cc21` [PHA767491, 1,5,6,7‐tetrahydro‐2‐(4‐pyridinyl)‐4H‐pyrrolo[3,2‐c]pyridin‐4‐one hydrochloride], the 50% inhibitory concentration (IC50) at Recombinant CKL4 kinase (setting [3]) turned out to be 5900 nM. For the same compound, in the experiment with CCA1:LUC seedlings [2], the “Effective concentration of PHA767491 as CK1 inhibitor in plants” value is reported as “more than 40 µM”. For the same compound, the “Effective concentrations for PRR5 or TOC1 accumulation” value in the experiment on PRR5 and TOC1 is 250 to 500 µM.
